What follows are molecules tested on HCV genotype 1a replicon (assay: HCV genotype 1a replicon assay (NS3 protease activity readout)). Settings: HCV genotype 1a replicon.
Type: cell-based, hepatitis C virus
Outline: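 EC50 values came from a 4-parameter robust fit of fluorescence (ex 340, em 509 nm) produced by NS3-specific protease in lysates, assayed with 15 μM FRET substrate for 20 min at 37° C, after 48 or 72 hours of compound exposure (0.5% DMSO) of Huh7.5-derived APC89 genotype 1a replicon cells.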

SMILES | Genotype 1a
CNC(=O)N1CCC[C@@H]1C(=O)N1C[C@@H](C)N(c2ccc(C(=O)Nc3cc(OC(F)(F)F)c(-c4ccc(-c5c[nH]c([C@@H]6C[C@H](C)CN6C(=O)[C@@H](NC(=O)OC)C(C)C)n5)cc4)cc3Cl)cn2)C[C@@H]1C [Example 1-44] | D (D represents pEC50>10 (EC50<0.1 nM))
COC(=O)N[C@H](C(=O)N1C[C@@H](C)C[C@H]1c1nc(-c2ccc(-c3ccc(C(=O)Nc4ccc(N5CCN(C(=O)C6CC6)C[C@H]5C)nc4)cc3OC(F)(F)F)cc2)c(Cl)[nH]1)C(C)C [Example 4-31] | C (C represents pEC50 between and 9 and about 10, (EC50 between 1 nM and 0.1 nM))
COC(=O)N[C@H](C(=O)N1C[C@@H](C)C[C@H]1c1nc(-c2ccc(-c3cc(F)c(NC(=O)c4ccc(N5CCN(C(=O)C6CC6)C[C@H]5C)nc4)cc3C(F)(F)F)cc2)c[nH]1)C(C)C [Example 1-52] | C (C represents pEC50 between and 9 and about 10, (EC50 between 1 nM and 0.1 nM))
COC(=O)NC(C(=O)N1CC(C)CC1c1nc(-c2ccc(-c3cc(F)c(NC(=O)c4ccc(N5CCN(C(=O)C6CC6(F)Cl)CC5C)nc4)cc3OC(F)(F)F)cc2)c[nH]1)C(C)C (mixture of isomers) [Example 1-60] | D (D represents pEC50>10 (EC50<0.1 nM))
COC(=O)N[C@@H](C(=O)N1C[C@@H](C)C[C@H]1c1nc(-c2ccc(-c3cc(Cl)c(NC(=O)c4ccc(N5CCN(C(=O)C(C)(C)CO)C[C@H]5C)nc4)cc3C(F)(F)F)cc2)c[nH]1)C1CCCCC1 [Example 19-5] | A (A represents a pEC50 value between 6 and 8 (EC50 between 1 μM and 10 nM))
COC(=O)N[C@H](C(=O)N1C[C@@H](N(C)C)C[C@H]1c1nc(-c2ccc(-c3cc(Cl)c(NC(=O)c4ccc(N5CCN(C(=O)[C@H]6CC6(C)C)C[C@H]5C)nc4)cc3OC(F)(F)F)cc2)c[nH]1)C(C)C [Example 2-6] | D (D represents pEC50>10 (EC50<0.1 nM))
COC(=O)N[C@H](C(=O)N1C[C@@H](OC)C[C@H]1c1nc(-c2ccc(-c3cc(Cl)c(NC(=O)c4ccc(N5CCN(C(=O)C(C)(C)C)C[C@H]5C)nc4)cc3C(F)(F)F)cc2)c[nH]1)C1CCOCC1 [Example 19-16] | D (D represents pEC50>10 (EC50<0.1 nM))
COC(=O)N[C@H](C(=O)N1C[C@@H](C)C[C@H]1c1nc(-c2ccc(-c3ccc(C(=O)Nc4ccc(N5C[C@H](C)N(C(=O)C(C)(C)NC(C)=O)C[C@H]5C)nc4)cc3OC(F)(F)F)cc2)c[nH]1)C(C)C [Example 4-27] | C (C represents pEC50 between and 9 and about 10, (EC50 between 1 nM and 0.1 nM))
COC(=O)N[C@H](C(=O)N1C[C@@H](C)C[C@H]1c1nc(-c2ccc(-c3ccc(NC(=O)c4ccc(N5CCN(C(=O)[C@H]6CC6(C)C)C[C@H]5C)nc4)cc3OC(F)(F)F)cc2)c[nH]1)C(C)C [Example 1-74] | D (D represents pEC50>10 (EC50<0.1 nM))

Same assay, conditions: Hepatitis C virus, read-out: Genotype 1a, HCV genotype 1a replicon

SMILES | EC50 [nM]
COC(=O)N[C@H](C(=O)N1C[C@@H](C)C[C@H]1c1nc(-c2ccc(-c3cc(F)c(NC(=O)c4ccc(N5CCN(C(=O)C(C)(C)CO)C[C@H]5C)nc4)cc3OC(F)(F)F)cc2)c[nH]1)[C@H](C)O [Example 13-26] | < 0.1
COC(=O)N[C@H](C(=O)N1CC2(C[C@H]1c1nc(-c3ccc(-c4ccc(NC(=O)c5ccc(N6CCN(C(=O)[C@]7(C)CCCN7C(=O)[C@@H](NC(=O)OC)C(C)C)C[C@H]6C)nc5)cc4OC(F)(F)F)cc3)c[nH]1)OCCO2)C(C)C [Example 5-1] | < 0.1
COC(=O)N[C@H](C(=O)N1C[C@@H]([S+](C)[O-])C[C@H]1c1nc(-c2ccc(-c3ccc(C(=O)Nc4ccc(N5CCN(C(=O)C6CC6(C)C)C[C@H]5C)nc4)cc3OC(F)(F)F)cc2)c[nH]1)C(C)C (stereo partly shown) [Example 6-18] | 0.1 to 1
COC(=O)N[C@H](C(=O)N1[C@@H]2C[C@@H]2C[C@H]1c1nc(-c2ccc(-c3cc(Cl)c(NC(=O)c4ccc(N5CCN(C(=O)C(C)(C)C)C[C@H]5C)nc4)cc3C(F)(F)F)cc2)c[nH]1)C(C)C [Example 8-5] | 0.1 to 1

Reference: patent US9212168B2 (priority 2011, dated 2015)
